Measured values from ChEMBL document CHEMBL1212753, “Inducible APOBEC3G-Vif double stable cell line as a high-throughput screening platform to identify antiviral compounds” (Antimicrob Agents Chemother, 2010).

What was measured:
[1] = Inhibition of HIV Vif induced human cytidine-deaminase degradation in double transgenic HEK293 cells constitutively expressing enhanced yellow fluorescent protein expressor (EYFP-A3G) fusion and Tet-Off controllable Vif protein after 24 hrs by fluorimetric assay; type: cell-based, Human immunodeficiency virus
[2] = Inhibition of HIV Vif by replicating virus inhibition assay; set-up: species or system Human immunodeficiency virus

Question: Which EC50 [1] does the source give for `COc1ccccc1NC(=O)c1ccccc1Sc1ccc([N+](=O)[O-])cc1` here?
Answer: 5.8 µM

Question: And the EC50 [2]?
Answer: 3 µM
